Measured values reported in US6716833B2, “Acetylenic α-amino acid-based sulfonamide hydroxamic acid tace inhibitors” (priority 1999, dated 2004).

Molecular target: TNF-α converting enzyme (TACE) (Homo sapiens, UniProt P78536)
Assay: TACE inhibition (fluorescent peptidyl substrate)
Type: biochemical
Settings: 1 uM; Table 15

Chain of TNF-α converting enzyme (TACE) (P78536 215-824, species assumed): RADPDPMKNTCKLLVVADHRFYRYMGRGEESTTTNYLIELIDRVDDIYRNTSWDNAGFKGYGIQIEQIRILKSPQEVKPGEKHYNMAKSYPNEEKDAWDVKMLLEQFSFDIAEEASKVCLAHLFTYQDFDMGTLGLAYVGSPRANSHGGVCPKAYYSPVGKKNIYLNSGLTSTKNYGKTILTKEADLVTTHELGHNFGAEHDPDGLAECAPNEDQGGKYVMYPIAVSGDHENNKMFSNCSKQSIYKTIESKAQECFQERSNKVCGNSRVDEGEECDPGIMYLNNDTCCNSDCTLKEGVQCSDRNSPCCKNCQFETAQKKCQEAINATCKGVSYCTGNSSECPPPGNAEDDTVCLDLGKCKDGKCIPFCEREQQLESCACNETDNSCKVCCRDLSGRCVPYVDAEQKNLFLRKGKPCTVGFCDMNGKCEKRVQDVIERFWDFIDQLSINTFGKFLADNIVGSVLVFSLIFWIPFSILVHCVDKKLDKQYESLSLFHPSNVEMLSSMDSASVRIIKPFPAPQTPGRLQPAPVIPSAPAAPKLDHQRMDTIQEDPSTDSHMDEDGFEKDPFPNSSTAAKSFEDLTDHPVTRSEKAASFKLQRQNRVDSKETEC

% Inhibition at 1 uM (In Vitro Inhibition of TACE) | Structure (SMILES)
47.6% | CC#CCOc1ccc(S(=O)(=O)N[C@@H](CC)C(=O)NO)cc1 [Example 63]
8.4% | CC#CCOc1ccc(S(=O)(=O)N2CC(OCc3ccccc3)CC2C(=O)NO)cc1 (stereo not shown) [Example 88]
28.5% | CC#CCOc1ccc(S(=O)(=O)NC(C(=O)NO)C(C)OCc2ccccc2)cc1 (stereo not shown) [Example 99]
22% | CC#CCOc1ccc(S(=O)(=O)NC(CSCNC(C)=O)C(=O)NO)cc1 (stereo not shown) [Example 96]
79% | CC#CCOc1ccc(S(=O)(=O)NC(CSC(C)(C)C)C(=O)NO)cc1 (stereo not shown) [Example 73]

Structure (SMILES) | % Inhibition at 1 uM (In Vitro Inhibition of TACE)
CC#CCOc1ccc(S(=O)(=O)NC(C(=O)NO)C(C)C)cc1 (stereo not shown) [Example 104] | 38.5%

Same assay, conditions: 1 uM; Table 15; read-out: % Inhibition at 1 uM (In Vitro Inhibition of TACE)

inhibition at 1 µM | Structure (SMILES)
46.2% | CC#CCOc1ccc(S(=O)(=O)NC(C)C(=O)NO)cc1 (stereo in doubt) [Example 62B, L-2-(4-but-2-ynyloxy-Benzenesulfonylamino)-N-hydroxy-propionamide]

Same assay, conditions: IC 50 nM (In Vitro Inhibition of TACE), Table 15

IC50 | Structure (SMILES)
4.7 nM | CC#CCOc1ccc(S(=O)(=O)N[C@H](Cc2cccs2)C(=O)NO)cc1 [Example 321, (2R)-2-({[4-(But-2-ynyloxy)phenyl]sulfonyl}amino)-N-hydroxy-3-thien-2-yl-propanamide]
10.9 nM | CC#CCOc1ccc(S(=O)(=O)N[C@H](CCCNC(=N)N)C(=O)NO)cc1 [Example 296, (2R)-2-(4-But-2-ynyloxy-benzenesulfonylamino)-5-guanidino-pentanoic acid hydroxyamide]
5.24 nM | CC#CCOc1ccc(S(=O)(=O)N[C@H](CCCNC(=O)Cc2ccc([N+](=O)[O-])cc2)C(=O)NO)cc1 [Example 344, (2R)-2-({[4-(But-2-ynyloxy)phenyl]sulfonyl}amino)-N-hydroxy-5-{[2-(4-nitrophenyl)acetyl]amino}pentanamide]
4.63 nM | CC#CCOc1ccc(S(=O)(=O)N[C@H](CCCNC(=O)c2cnc3ccccc3c2)C(=O)NO)cc1 [Example 346, N-[(4R)-4-({[4-(But-2-ynyloxy)phenyl]sulfonyl}amino)-5-(hydroxyamino)-5-oxopentyl]quinoline-3-carboxamide]
6.28 nM | CC#CCOc1ccc(S(=O)(=O)N[C@H](CCCCNC(=O)c2ccccc2)C(=O)NO)cc1 [Example 350, N-[(5R)-5-({[4-(But-2-ynyloxy)phenyl]sulfonyl}amino)-6-(hydroxyamino)-6-oxohexyl]benzamide]
10.8 ± 3.7 nM | CC#CCOc1ccc(S(=O)(=O)N[C@H](CCSC)C(=O)NO)cc1 [Example 80]
11.8 ± 4.6 nM | CC#CCOc1ccc(S(=O)(=O)N[C@@H](C(=O)NO)C2CCCCC2)cc1 [Example 78]
6.9 ± 3.3 nM | CC#CCOc1ccc(S(=O)(=O)N[C@H](CC2CCCCC2)C(=O)NO)cc1 [Example 77]
14.2 nM | CC#CCOc1ccc(S(=O)(=O)N[C@H](CCCNC(=O)NCC)C(=O)NO)cc1 [Example 369]
6.9 nM | CC#CCOc1ccc(S(=O)(=O)N2Cc3ccccc3C[C@@H]2C(=O)NO)cc1 [Example 325, (3R)-2-{[4-(But-2-ynyloxy)phenyl]sulfonyl}-N-hydroxy-1,2,3,4-tetrahydroisoquinoline-3-carboxamide]
58.6 nM | CC#CCOc1ccc(S(=O)(=O)N[C@H](Cc2ccc(OCc3ccccc3)cc2)C(=O)NO)cc1 [Example 326, (2R)-3-[4-(Benzyloxy)phenyl]-2-({[4-(but-2-ynyloxy)phenyl]sulfonyl}amino)-N-hydroxypropanamide]
18.2 nM | CC#CCOc1ccc(S(=O)(=O)N[C@H](CCCNC(=O)N(C)c2ccccc2)C(=O)NO)cc1 [Example 374, (2R)-2-({[4-(but-2-ynyloxy)Phenyl]sulfonyl}amino)-N-hydroxy-5-{[(methylanilino)carbonyl]amino}pentanamide]
24.6 nM | CC#CCOc1ccc(S(=O)(=O)N[C@H](CCCNS(=O)(=O)c2cn(C)cn2)C(=O)NO)cc1 [Example 375, (2R)-2-({[4-(but-2-ynyloxy)Phenyl]sulfonyl}amino)-N-hydroxy-5-{[(1-methyl-1H-imidazol-4-yl)sulfonyl]amino}pentanamide]
420 ± 50 nM | CC#CCOc1ccc(S(=O)(=O)N[C@@H](CCCNC(=N)N)C(=O)NO)cc1 [Example 64]
4.54 nM | CC#CCOc1ccc(S(=O)(=O)N[C@H](CCCNC(=O)c2ccccc2OC)C(=O)NO)cc1 [Example 342, N-[(4R)-4-({[4-(But-2-ynyloxy)phenyl]sulfonyl}amino)-5-(hydroxyamino)-5-oxopentyl]-2-methoxybenzamide]
7.4 nM | CC#CCOc1ccc(S(=O)(=O)N[C@H](COCc2ccccc2)C(=O)NO)cc1 [Example 320, (2R)-3-(Benzyloxy)-2-({[4-(but-2-ynyloxy)phenyl]sulfonyl}amino)-N-hydroxypropanamide]
151 nM | CC#CCOc1ccc(S(=O)(=O)N[C@H](CCCNC(=O)c2cccs2)C(=O)NO)cc1 [Example 368, (4R)-4-({[4-(but-2-ynyloxy)Phenyl]sulfonyl}amino)-5-(hydroxyamino)-5-oxopentylithiophene-2-carboxamide]
14.6 nM | CC#CCOc1ccc(S(=O)(=O)N[C@H](CCCCNC(=O)c2ccsc2)C(=O)NO)cc1 [Example 365, N-[(5R)-5-({[4-(But-2-ynyloxy)phenyl]sulfonyl}amino)-6-(hydroxyamino)-6-oxohexyl]thiophene-3-carboxamide]

IC50 | Structure (SMILES)
9.36 nM | CC#CCOc1ccc(S(=O)(=O)N[C@H](CCCCNC(=O)c2cc(C)oc2C)C(=O)NO)cc1 [Example 356, N-[(5R)-5-({[4-(But-2-ynyloxy)phenyl]sulfonyl}amino)-6-(hydroxyamino)-6-oxohexyl]-2,5-dimethyl-3-furamide]
7.1 nM | CC#CCOc1ccc(S(=O)(=O)N2CCC[C@@H]2C(=O)NO)cc1 [Example 82]
398 ± 136 nM | CC#CCOc1ccc(S(=O)(=O)N[C@@H](CCCN=C(N)NS(=O)(=O)c2ccc(C)cc2)C(=O)NO)cc1 [Example 65]
120 nM | CC#CCOc1ccc(S(=O)(=O)N[C@H](C(=O)NO)c2ccccc2)cc1 [Example 95]
9.57 nM | CC#CCOc1ccc(S(=O)(=O)N[C@H](CCCCNC(=O)c2ccc(Br)cc2)C(=O)NO)cc1 [Example 351, 4-Bromo-N-[(5R)-5-({[4-(but-2-ynyloxy)phenyl]sulfonyl}amino)-6-(hydroxyamino)-6-oxohexyl]benzamide]
5.13 nM | CC#CCOc1ccc(S(=O)(=O)N[C@H](CCCNC(=O)CCC)C(=O)NO)cc1 [Example 332, (2R)-2-({[4-(But-2-ynyloxy)phenyl]sulfonyl)amino)-5-(butyrylamino)-N-hydroxypentanamide]
7.79 nM | CC#CCOc1ccc(S(=O)(=O)N[C@H](CCCCNC(=O)c2cnc3ccccc3c2)C(=O)NO)cc1 [Example 364, N-[(5R)-5-({[4-(But-2-ynyloxy)phenyl]sulfonyl}amino)-6-(hydroxyamino)-6-oxohexyl]quinoline-3-carboxamide]
6.25 nM | CC#CCOc1ccc(S(=O)(=O)N[C@H](CCCNC(=O)/C=C/c2ccccc2)C(=O)NO)cc1 [Example 348, (E)-N-[(4R)-4-({[4-(But-2-ynyloxy)phenyl]sulfonyl}amino)-5-(hydroxyamino)-5-oxopentyl]-3-phenylprop-2-enamide]
402 ± 55 nM | CC#CCOc1ccc(S(=O)(=O)N[C@@H](CC2CCCCC2)C(=O)NO)cc1 [Example 71]
4.55 nM | CC#CCOc1ccc(S(=O)(=O)N[C@H](CCCCNC(=O)Cc2ccc([N+](=O)[O-])cc2)C(=O)NO)cc1 [Example 362, (2R)-2-({[4-(But-2-ynyloxy)phenyl]sulfonyl}amino)-N-hydroxy-6-{[2-(4-nitrophenyl)acetyl]amino}hexanamide]
26.5 nM | CC#CCOc1ccc(S(=O)(=O)N[C@H](CCCNC(=O)CN2CCN(C)CC2)C(=O)NO)cc1 [Example 377, (2R)-2-({[4-(but-2-ynyloxy)Phenyl]sulfonyl}amino)-N-hydroxy-5-{[2-(4-methylpiperazin-1-yl)acetyl]amino}pentanamide]
5.32 nM | CC#CCOc1ccc(S(=O)(=O)N[C@H](CCCNC(=O)c2ccc(Br)cc2)C(=O)NO)cc1 [Example 331, 4-Bromo-N-[(4R)-4-({[4-(but-2-ynyloxy)phenyl]sulfonyl}amino)-5-(hydroxyamino)-5-oxopentyl]benzamide]
16.9 nM | CC#CCOc1ccc(S(=O)(=O)N[C@H](CCCNC(=O)N(CC)CC)C(=O)NO)cc1 [Example 373]
2.4 nM | CC#CCOc1ccc(S(=O)(=O)N[C@H](CCCNC(=O)Nc2ccccc2)C(=O)NO)cc1 [Example 370, (2R)-5-[(Anilinocarbonyl)amino]-2-({[4-(but-2-ynyloxy)phenyl]sulfonyl}amino)-N-hydroxypentanamide]
45.1 ± 9.5 nM | CC#CCOc1ccc(S(=O)(=O)N[C@H](Cc2c[nH]c3ccccc23)C(=O)NO)cc1 [Example 83]
8.84 nM | CC#CCOc1ccc(S(=O)(=O)N[C@H](CCCCNC(=O)CCc2ccccc2)C(=O)NO)cc1 [Example 358, (2R)-2-({[4-(But-2-ynyloxy)phenyl]sulfonyl}amino)-N-hydroxy-6-[(3-phenylpropanoyl)amino]hexanamide]
11.9 nM | CC#CCOc1ccc(S(=O)(=O)N2CCCC[C@@H]2C(=O)NO)cc1 [Example 318, (2R)-1-{[4-(But-2-ynyloxy)phenyl]sulfonyl}-N-hydroxypiperidine-2-carboxamide]

Same assay, conditions: read-out: IC 50 nM (In Vitro Inhibition of TACE); Table 15

IC50 | Structure (SMILES)
5.7 nM | CC#CCOc1ccc(S(=O)(=O)N[C@H](Cc2ccc(F)c(F)c2)C(=O)NO)cc1 [Example 315, (2R)-2-({[4-(But-2-ynyloxy)phenyl]sulfonyl}amino)-3-(3,4-digluorophenyl)-N-hydroxypropanamide]
451 ± 31 nM | CC#CCOc1ccc(S(=O)(=O)NC(CSC(C)(C)C)C(=O)NO)cc1 (stereo not shown) [Example 73]

Structure (SMILES) | IC50
CC#CCOc1ccc(S(=O)(=O)N[C@H](CCCNC(=O)Oc2ccc(OC)cc2)C(=O)NO)cc1 [Example 372, 4-Methoxyphenyl(4R)-4-({[4-(but-2-ynyloxy)phenyl]sulfonyl}amino)-5-(hydroxyamino)-5-oxopentylcarbamate] | 8.4 nM

Same assay, conditions: read-out: TACE IC50

IC50 | Structure (SMILES)
6.8 nM | CC#CCOc1ccc(S(=O)(=O)N(C)CC(=O)NO)cc1 [Example 17, 2-[(4-but-2-ynyloxy-Benzenesulfonyl)-methyl-amino]-N-hydroxy-acetamide]
